“Also recorded” adds a separate entry of the source.
Assays:
[1] = tested on: YMDD motif of HIV-1 RT; assay: In vitro site directed mutagenesis of HIV-1 reverse transcriptase gene, transformation into E. coli and sequencing; type: cell-based; settings: sequencing of mutants; for amino acid change: YMDD motif
Source text: Example 6 describes the in vivo mutation of the RT gene within the YMDD motif, incorporated into a proper vector in E. coli cells. The mutagenic oligonucleotide DNA target region is the conserved YMDD motif (nucleotides 5′ 2678 to 3′ 2689) of HIV-1 RT. The mutagenic oligonucleotides used were
The procedure for in vitro site directed mutagenesis used in this experiment was a modification of that used in the Altered Sites mutagenesis Kit #Q6210 (Promega Corp., Madison, Wis.). Briefly, oligonucleotides, 5′-AATACATGGA(CDU)GATTTGTAT-3′ (SEQ ID NO:1) and 5′-AATACATGG(CDU)(CDU)GATTTGTAT-3′ (SEQ ID NO:2), and a control, located on the putative catalytic active site for HIV-1 RT (5′-2676 to 3′-2696) were 5′ phosphorylated using T4 polynucleotide kinase. The reaction was terminated by heating to 70° C. for 10 min. The mutagenesis annealing reaction was performed by adding 0.05 pmol of pHIVALT-1 ssDNA, 0.25 pmol ampicillin repair oligonucleotide (supplied in the kit), 1.25 pmol of the 5′ phosphorylated mutagenic oligo, and an annealing buffer supplied in the kit in a final volume of 20 μL. The control oligonucleotide reactions for this experiment were done separately along with an added reaction that contained ampicillin repair oligo but no mutagenic oligo 5′-AATACATGGA(CDU)GATTTGTAT-3′ (SEQ ID NO: 1) and 5′-AATACATGG(CDU)(CDU) GATTTGTAT-3′ (SEQ ID NO:2) and control unmodified. The reactions were then heated to 70° C. for 5 min and allowed to cool to room temperature over a 15-20 min period. The annealing reactions were placed on ice and the following reagents were added: 3 μL 10× synthesis buffer (supplied in kit), 1 μL T4 DNA polymerase (10 U/μL ), 1 μL T4 DNA ligase (2 U/μL ), and 5 μL sterile dHO. The 30 μL reaction was incubated at 37° C. for 90 min to perform second strand synthesis and ligation. […]

[2] = tested on: d(A)12; assay: Melting temperature (Tm) of duplexes with d(A)12; type: binding; settings: for Tm: d(A)12 as complementary strand, 1:1, PIPES buffer at 120 mM NaCl
Experimental: Melting Temperature (Tm) Measurements. Samples for Tm measurements were prepared by the addition of concentrated stock solutions of the d(T)12 (18) or CDU modified d(T)12 (19-24) and d(A)12stock solution to 1.0 mL 10 mM 1,4-piperazine-bis-(ethane-sulfonic acid) (PIPES) buffer (pH 7.0) containing 100 mM NaCl, and 1 mM EDTA, in amounts to give a 1:1 ratio. Each strand was present at 40 μM. Molar extinction coefficients ε260 (per base) were calculated as following: 18: 8,150; d(A)12: 12,280; 19-24: 8,200. The samples were heated to 85° C. and cooled slowly to room temperature before melting. The insulated cell compartment of the UV spectrophotometer was continuously warmed from 0° C. to 85° C. at the rate 0.5° C. per minute. Samples were heated in quartz cuvettes fitted with a teflon stopper (1 cm path length). The absorption change at 260 nm was followed as a function of temperature, and Tm values were obtained from first derivative plots after the data were transferred to a Macintosh computer for visualization and analysis.

[3] = tested on: polyriboadenylic acid; assay: Melting temperature (Tm) of duplexes with polyriboadenylic acid; type: binding; settings: polyriboadenylic acid as target; PIPES buffer at 120 mM NaCl
[4] = tested on: Phosphodiesterase I (EC 3.1.4.1) type VIII from Crotalus durissus terrificus venom; assay: Stability towards snake venom phosphodiesterase (SVPD) 3′-exonuclease, HPLC; type: in vitro ADME; settings: for % remaining: SVPDE; for T½: degradation by SVPDE, disappearance of 12-mer (11-mer for CDU-modified oligos)
Experimental: Resistance of dodeca (thymidine phosphates) containing CDU (19-24) against phosphodiesterase I (EC 3.1.4.1): To 100 mM Tris-HCl buffer, pH 8.9 (90 μL) containing 20 mM MgCl2, 0.1 A260 ODU of oligonucleotide 19-24 (5 μL), 1.5×10-3 unit (5 μL) of phosphodiesterase was added. A blank with no enzyme, and a control reaction with d(T)12 were assayed simultaneously. Reactions were maintained at 37° C. for 10 minutes and then 50 μL aliquots were analyzed by HPLC under conditions described above.
The replacement of all natural phosphodiester linkages within oligonucleotide chain by methylphosphonate ones is an example of modifications that ensure complete stability of the oligonucleotide towards exo- and endonucleases. To test the resistance of CDU-oligonucleotides towards 3′-exonucleolytic activity (hydrolysis of the oligonucleotide from 3′-end), snake venom phosphodiesterase (SVPD) from Crotalus durissus terrificus was used. It was discovered that these oligonucleotides are remarkably stable to 3′-exonucleases if the CDU residue is incorporated in the 3′- or both 3′- and 5′-end. The oligonucleotide bearing both 3′- and 5′-modifications (24) was also resistant to SVPD and calf spleen phosphodiesterase.
The half-life (T½) of 3′-CDU-, 3′,5′-CDU- and 3′CDU2-oligonucleotides were determined by kinetic study of their degradation by SVPDE (snake venom phosphodiesterase). Aliquots of enzymatic reaction (0, 5, 10, 20, 40, 80 and 240 minutes) were analyzed by HPLC. Calculations of half life time were based on the disappearance of 12-mer (or 11-mer in the case of CDU-modified oligos) after standardization with 2′-deoxycytidine used as internal standard.

[5] = tested on: calf spleen phosphodiesterase; assay: Resistance to calf spleen phosphodiesterase; type: in vitro ADME; settings: in words

Row | Substance | Tm [2] [°C] | Tm [3] [°C] | % remaining ([4]; time 0 min) [%] | % remaining ([4]; time 5 min) [%] | % remaining ([4]; time 10 min) [%] | % remaining ([4]; time 40 min) [%] | T½ [4] [min] | further results
1 | 5′-AATACATGG(CDU)(CDU)GATTTGTAT-3′ [RL-2] | – | – | – | – | – | – | – | amino acid change [1]: YMDD to YRVD
2 | 5′-AATACATGGA(CDU)GATTTGTAT-3′ [RL-1] | – | – | – | – | – | – | – | clones in which the mutation occurred next to the base opposite to CDU on the complimentary strand [1]: 60%; amino acid change [1]: YMDD to YMVD; also recorded: YMDD to YMGD
3 | 5′CDUd(T)9CDUd(T) [Oligomer 24] | 20.0 | 17.0 | 100 | 56.2 | 38.1 | 14.8 | 5.06 | resistance towards 3′-exonucleolytic activity (SVPD) ([4]; in words): resistant; resistance to calf spleen phosphodiesterase [5]: resistant
4 | 5′CDUd(T)11 [Oligomer 19] | – | – | – | – | – | – | – | Tm ([2]; listed as 19): 28.0 °C; Tm ([2]; listed as CDU(dT)11): 28.8 °C
5 | 5′d(T)6CDUd(T)5 [Oligomer 21] | 15.2 | – | – | – | – | – | – | –
6 | 5′d(T)9(CDU)2d(T) [Oligomer 23] | 15.3 | 10.0 | 100 | 82.0 | – | 78.9 | 76.2 | % remaining ([4]; time 20 min): 80.0%; % remaining ([4]; time 80 min): 54.0%; % remaining ([4]; time 240 min): 10.5%
7 | 5′d(T)10CDUd(T) [Oligomer 22] | 20.5 | – | 100 | 54.8 | 44.0 | 23.2 | 6.7 | difference in Tm ([2]; between oligonucleotides 20 and 22): 7-8 °C; % remaining ([4]; time 20 min): 38.3%; % remaining ([4]; time 80 min): 11.0%
8 | 5′d(T)CDUd(T)10 [Oligomer 20] | 27.2 | 25.7 | – | – | – | – | – | –
9 | d(T)12 [Oligomer 18, reference compound] | 29.0 | 30.0 | 100 | 9.1 | 2.6 | – | 0.5 | –
